# Assay results as given in patent US8802634B2, “CD40-L Inhibitory Peptides” (Phylogica Limited, priority 2008, dated 2014).
# Entries after “also recorded” stand apart in the source; their conditions may differ. Where a SMILES comes first, the peptide text is derived from it. Bridges are numbered along the chain shown (N, C = ends). Roman numbers before positions name the chains, in order. Where no end group is shown, it is not given here. [ ]: non-standard residue; d: D form. AEEA = NCCOCCOCC(=O)O
# Experiments:
# [1] = test system: TNFα; experiment: TNFα-induced cytotoxicity (control); assay type: cell-based; conditions: specificity control
# Description: (§1) In these assays, CD40L induced CD86 expression in a concentration-dependent manner in the absence of a peptidyl inhibitor of the present invention with an EC50 value of about 9 nM (FIG. 6d, 6e). As a control in these assays, LPS-induced expression of CD86 mediated by the Toll-like receptors TLR 2/4, and TNFα-induced cytoxicity, were also assayed to exclude effects mediated by ligands other than CD40L.
# [2] = target: T1, CD40L/CD40-Fc (Homo sapiens, UniProt P29965); experiment: Chemiluminescent proximity assay (Alphascreen) of CD40L-CD40 interaction; assay type: binding; conditions: for inhibition of CD40L-CD40 interaction relative to monomeric peptide controls: qualitative
# T1 sequence (P29965 113-261 limits assumed): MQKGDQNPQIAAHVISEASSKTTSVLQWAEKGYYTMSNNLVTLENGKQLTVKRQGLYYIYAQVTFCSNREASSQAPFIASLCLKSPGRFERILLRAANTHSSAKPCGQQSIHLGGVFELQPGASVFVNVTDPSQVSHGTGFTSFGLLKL
# Description: In one example, the Alphascreen assay (PerkinElmer) was employed according to the manufacturer's instructions.
# Homodimers and heterodimers were also assayed by chemiluminescent proximity assay for their ability to inhibit CD40L-CD40 interaction.
# [3] = target: CD40L-induced CD86 expression on primary B-cells (Homo sapiens, UniProt P29965); experiment: Inhibition of CD40L-induced CD86 expression on primary B-cells (FACS); assay type: cell-based; conditions: for inhibition of CD40L-induced CD86 expression (qualitative): figure legends
# CD40L-induced CD86 expression on primary B-cells, sequence (P29965 whole entry): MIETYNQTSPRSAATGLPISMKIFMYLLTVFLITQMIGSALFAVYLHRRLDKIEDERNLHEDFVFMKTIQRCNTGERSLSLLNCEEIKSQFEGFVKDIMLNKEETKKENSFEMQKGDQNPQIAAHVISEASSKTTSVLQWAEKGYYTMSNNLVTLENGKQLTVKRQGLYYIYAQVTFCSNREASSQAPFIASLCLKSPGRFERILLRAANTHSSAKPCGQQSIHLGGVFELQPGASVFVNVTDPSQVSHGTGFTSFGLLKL
# CD40L-induced CD86 expression on primary B-cells, sequence (P25942 21-277 partner): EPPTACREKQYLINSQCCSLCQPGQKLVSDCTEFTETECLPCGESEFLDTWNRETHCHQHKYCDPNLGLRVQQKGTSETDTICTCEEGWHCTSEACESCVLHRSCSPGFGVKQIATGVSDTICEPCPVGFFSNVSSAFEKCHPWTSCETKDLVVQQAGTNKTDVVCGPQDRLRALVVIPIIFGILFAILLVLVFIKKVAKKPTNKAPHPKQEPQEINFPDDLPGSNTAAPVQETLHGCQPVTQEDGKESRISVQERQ
# Description: In one example, the ability of a peptide, analog or derivative of the invention to inhibit or reduce or delay expression of CD86 on primary B-cells was determined in the presence and absence of the peptides, analogs and derivatives of the invention. In particular, CD86 expression was determined by FACS.
# as §1
# In a similar series of bioassays, dimeric forms of the CD40L peptide inhibitors were also tested for their ability to inhibit or reduce CD40L-induced expression of CD86 on primary B-cells.
inhibition of CD40L-CD40 interaction relative to monomeric peptide controls [2],inhibition of CD40L-induced CD86 expression (qualitative) [3],"EC50 ([2]; monomeric and dimeric peptides, Table 5, read-out: EC50) [nM]","EC50 ([3]; monomeric and dimeric peptides, Table 7, read-out: EC50) [nM]",Molecule,inhibition of rTNFα-induced cytoxicity [1]
,,,,HPFSIKNVFSIWNFFSVY [CD40L M1_6s],lack of inhibition; also recorded: no significant inhibition
enhanced inhibition,enhanced inhibition,,,CC[C@H](C)[C@H](NC(=O)[C@H](CO)NC(=O)[C@H](Cc1ccccc1)NC(=O)[C@@H](NC(=O)[C@H](CC(N)=O)NC(=O)[C@H](CCCCN)NC(=O)[C@@H](NC(=O)[C@H](CO)NC(=O)[C@H](Cc1ccccc1)NC(=O)[C@@H]1CCCN1C(=O)[C@H](Cc1c[nH]cn1)NC(=O)COCCOCCNC(=O)[C@@H](N)CSSC[C@H](N)C(=O)NCCOCCOCC(=O)N[C@@H](Cc1c[nH]cn1)C(=O)N1CCC[C@H]1C(=O)N[C@@H](Cc1ccccc1)C(=O)N[C@@H](CO)C(=O)N[C@H](C(=O)N[C@@H](CCCCN)C(=O)N[C@@H](CC(N)=O)C(=O)N[C@H](C(=O)N[C@@H](Cc1ccccc1)C(=O)N[C@@H](CO)C(=O)N[C@H](C(=O)N[C@@H](Cc1c[nH]c2ccccc12)C(=O)N[C@@H](CC(N)=O)C(=O)N[C@@H](Cc1ccccc1)C(=O)N[C@@H](Cc1ccccc1)C(=O)N[C@@H](CO)C(=O)N[C@H](C(=O)N[C@@H](Cc1ccc(O)cc1)C(=O)O)C(C)C)[C@@H](C)CC)C(C)C)[C@@H](C)CC)[C@@H](C)CC)C(C)C)C(=O)N[C@@H](Cc1c[nH]c2ccccc12)C(=O)N[C@@H](CC(N)=O)C(=O)N[C@@H](Cc1ccccc1)C(=O)N[C@@H](Cc1ccccc1)C(=O)N[C@@H](CO)C(=O)N[C@H](C(=O)N[C@@H](Cc1ccc(O)cc1)C(=O)O)C(C)C [Cys_M1_6S homodimer] (I: H-C[AEEA]HPFSIKNVFSIWNFFSVY-OH / II: H-C[AEEA]HPFSIKNVFSIWNFFSVY-OH; disulfide I:1-II:1; C-terminus assumed),
enhanced inhibition,enhanced inhibition,,,I: H-C[AEEA]PPRYNLFFLFRFYSSFRRDYLYF / II: H-C[AEEA]HPFSIKNVFSIWNFFSVY (disulfide I:1-II:1) [Cys_M1_6S-Cys_M1_9S heterodimer],
,,177,176,CC[C@H](C)[C@H](NC(=O)[C@H](CO)NC(=O)[C@H](Cc1ccccc1)NC(=O)[C@@H]1CCCN1C(=O)[C@@H]1CCCN1C(=O)[C@H](CO)NC(=O)[C@H](Cc1ccccc1)NC(=O)[C@H](Cc1ccccc1)NC(=O)[C@H](Cc1ccccc1)NC(=O)[C@H](CC(C)C)NC(=O)[C@H](CC(C)C)NC(=O)[C@@H](N)CC(C)C)C(=O)N[C@@H](Cc1ccccc1)C(=O)N[C@@H](CO)C(=O)N[C@@H](Cc1ccccc1)C(=O)N[C@@H](CO)C(=O)N[C@@H](CC(C)C)C(=O)N[C@H](C(=O)N[C@H](C(=O)N[C@@H](CC(C)C)C(=O)N[C@@H](CO)C(=O)O)[C@@H](C)O)[C@@H](C)O [Peptide M7_189S] (H-LLLFFFSPPFSIFSFSLTTLS-OH),
